Data as given in patent US7605166B2, “Methods and compositions for treating rheumatoid arthritis” (Elan Pharmaceuticals Inc., priority 2003, dated 2009).

Experiments:
rat CIA model = test: Rat CIA model: paw swelling, erythema, histology; format: in vivo; settings: rat CIA, 30, 10, 3 mg/kg b.i.d.; FIG. 6
Method: Anti alpha-4 antibodies, and the compounds of Formulae W and Y were tested in the rat CIA model according to the methods shown in Table 14 below.
(§1) The results in FIG. 6 show the results for compounds. There were 8 rats per group in the efficacy study. Paw swelling and erythema were measured daily and the tarsal paws collected for histological analysis at the end of the study. Plasma which was heparinized was collected at 12 hours (i.e., the trough level) and at 4 horus after the last dose for compound measurement (FIG. 6).

AIA Rats = test: Adjuvant-induced arthritis (AIA) in Lewis rats: paw swelling, erythema, histology; format: in vivo, rat
[1] = Plasma compound levels in AIA rats (4 and 12 hours); format: in vivo, rat; settings: 12 hours after dosing, all concentrations tested (30, 10, 3 mg/kg)
[2] = Blood levels of compound in CIA rats (12 hours trough); format: in vivo, rat; settings: at 12 hours, all concentrations tested
Method: as §1

[3] = system: murine collagen-induced arthritis (CIA) model; test: Murine collagen-induced arthritis (CIA) model: clinical scores; format: in vivo, mouse; settings: therapeutic CIA model, DBA/1LacJ mice, 100 mg/kg b.i.d.
Method: A murine collagen-induced arthritis (CIA) model was used to examine the pharmacological effect of anti-alpha4-integrin antibodies prophylactically, semi-therapeutically and therapeutically. Dosing of the antibody was begun on day 20 for the prophylactic animals. […] The results seen with the treatment of the CIA mice is seen in FIG. 1.
Peripheral blood leucocytes (PBLs) from mice treated with anti-alpha4, anti-α4β7 and anti-VCAM 1 antibodies were collected at 4, 12 and 24 hours after antibody dosing. Cells were stained with goat anti-rat antibodies to confirm antibodies in circulation.
The effect of the compound of Formula P was evaluated in a therapeutica CIA model. […] 100 DBA/1LacJ male mice, ages 6-8 weeks were obtained from Jackson Laboratories. The mice were immunized at Day 0 as follows: 100 μg bovine type II collagen (Chondrex) in Complete Freund's adjuvant (CFA, Sigma) were injected into the mice. At Day 21, another 100 μg bovine type II collagen (Chondrex) in Incomplete Freund's Adjuvant (IFA, Sigma) was injected into the mice. Treatment with the compound began when the animals had the disease (i.e., 100% therapeutic).
The mice are scored daily after the boost. […] Treatment continued for 3 weeks of dosing. Dosing was every other day for the antibody group and control group. […]

levels of the compound relative to receptor saturation [1] | blood levels of the compound relative to receptor saturation [2] | SMILES | disease severity (rat CIA model) | clinical and histological scores (AIA Rats; AIA model, 30 mg/kg b.i.d.) | disease severity (AIA Rats; Example F, 3 mg/kg s.c. b.i.d.) | disease (AIA Rats; Example F, all concentrations tested (30, 10, 3 mg/kg p.o. b.i.d.), FIG. 5) | disease progression [3]
– | – | CC(C)OC(=O)[C@H](Cc1ccc(OC(=O)N2CCN(C)CC2)cc1)NC(=O)[C@H]1N(S(=O)(=O)c2cccnc2)CSC1(C)C [Formula N, N-[N-(3-pyridinesulfonyl)-L-3,3-dimethyl-4-thiaprolyl]-O-[1-methylpiperazin-4-ylcarbonyl]-L-tyrosine isopropyl ester] | neither the compound of Formula N nor Y had any impact on disease severity | ameliorate clinical and histological scores | no effect on disease severity | – | –
above receptor saturation | above receptor saturation | CCN(CC)c1ncc(N(CC)S(=O)(=O)c2ccc(Cl)cc2)c(NC(Cc2ccc(OC(=O)N3CCCC3)cc2)C(=O)O)n1 (stereo not shown) [Formula P] | – | – | – | ameliorate disease | no effect on disease progression
